Measurements taken from patent US9029063B2, “Negative-working lithographic printing plate precursors” (Eastman Kodak Company, priority 2011, dated 2015).
Where two headings read alike, the source gives them in different places.

Assay: Solubility in Dowanol PM (2-methoxy propanol)
Assay type: physicochemical
Conditions: 20 °C, organic solvent or mixture
From the text: The imagable layers comprise a radiation-sensitive imaging composition that includes one or more infrared radiation absorbing dyes. […] 2-Methoxy propanol (or propylene glycol methyl ether) is available from various commercial sources, and for example, can be obtained in Dowanol® PM. In some embodiments, the ion exchange products formed between the infrared radiation absorbing cyanine cation and any counter anion from any other components, for example, a free radical initiator, in the imagable layer.
Dowanol® PM is propylene glycol methyl ether that is available from Dow Chemical.

[1] = Dowanol PM (2-methoxy propanol), Table I, read-out: S1, Solubility of IR Dye in Dowanol PM
[2] = Dowanol PM (2-methoxy propanol), Table II, read-out: S1, solubility of IR Dye in Dowanol PM
[3] = Dowanol PM (2-methoxy propanol), Table IV, read-out: S1, solubility of IR Dye in Dowanol PM
[4] = tetraphenyl borate salt of the dye cation, Dowanol PM, Table II, read-out: S2, solubility of the tetraphenyl borate salt of the IR cation in Dowanol PM
[5] = tetraphenyl borate salt of the dye cation, Dowanol PM, Table IV, read-out: S2, solubility of the tetraphenyl borate salt of the IR cation in Dowanol PM
[6] = tetraphenylborate salt of the dye cation, Dowanol PM, Table I, read-out: S2, Solubility of the tetraphenylborate salt of the IR cation in Dowanol PM

CN1/C(=C/C=C2\CCCC(/C=C/C3=[N+](C)c4ccccc4C3(C)C)=C2Sc2nnnn2-c2ccccc2)C(C)(C)c2ccccc21 [compound 1]
solubility [1]: 192 mg/mL
solubility [2]: 192 mg/mL
solubility [3]: 192 mg/mL
solubility [4]: 1.4 mg/mL
solubility [5]: 1.4 mg/mL
solubility [6]: 1.4 mg/mL

C=Cc1ccc(CSc2nnc(SC3=C(/C=C/C4=[N+](C)c5ccccc5C4(C)C)CCC/C3=C\C=C3\N(C)c4ccccc4C3(C)C)s2)cc1 [compound 2]
solubility [2]: 128 mg/mL
solubility [3]: 128 mg/mL
solubility [4]: 4.8 mg/mL
solubility [5]: 4.8 mg/mL
solubility [6]: 4.8 mg/mL

CN1/C(=C/C=C2\CCCC(/C=C/C3=[N+](C)c4ccccc4C3(C)C)=C2Sc2ccc(C(C)(C)C)cc2)C(C)(C)c2ccccc21 [compound 4]
solubility [1]: 97 mg/mL
solubility [6]: 21 mg/mL
